Experiments:
Serine protease 1 = Serine protease 1 (Homo sapiens, UniProt P07477); assay: Inhibitory activity against trypsin
Prothrombin = Prothrombin (Homo sapiens, UniProt P00734); assay: Inhibitory activity against thrombin
Coagulation factor X = Coagulation factor X (Homo sapiens, UniProt P00742); assay: Inhibition of coagulation factor Xa
[1] = Plasma clearance was determined in rabbit at a dose of 5 mg/kg/h administered i.v.; format: ADME, organism-based, Oryctolagus cuniculus; parameters: route intravenous; conditions: iv
[2] = Half life period was determined; conditions: rabbit
[3] = The compound was evaluated for volume of distribution in rabbit at a dose of 5 mg/kg/h administered i.v.; format: ADME, organism-based, Oryctolagus cuniculus; parameters: route intravenous; conditions: in vivo, iv
[4] = Maximum plasma concentration was determined in rabbit at a dose of 5 mg/kg/h administered i.v.; format: ADME, organism-based, Oryctolagus cuniculus; parameters: dose 5 mg/kg/h, route intravenous; conditions: iv

Sequence of Coagulation factor X (P00742 41-179 limits assumed): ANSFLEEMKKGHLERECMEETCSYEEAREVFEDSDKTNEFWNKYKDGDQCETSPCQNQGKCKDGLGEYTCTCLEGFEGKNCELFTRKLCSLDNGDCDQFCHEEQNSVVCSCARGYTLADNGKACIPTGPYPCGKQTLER
Sequence of Coagulation factor X (P00742 235-488 limits assumed): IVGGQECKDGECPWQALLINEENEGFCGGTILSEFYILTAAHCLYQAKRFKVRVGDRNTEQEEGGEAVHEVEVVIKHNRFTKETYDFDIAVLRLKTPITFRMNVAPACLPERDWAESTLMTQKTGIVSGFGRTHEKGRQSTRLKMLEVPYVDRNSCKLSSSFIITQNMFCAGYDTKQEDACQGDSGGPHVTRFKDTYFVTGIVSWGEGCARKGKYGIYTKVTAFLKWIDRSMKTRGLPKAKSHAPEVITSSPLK
Sequence of Serine protease 1 (P07477 whole entry): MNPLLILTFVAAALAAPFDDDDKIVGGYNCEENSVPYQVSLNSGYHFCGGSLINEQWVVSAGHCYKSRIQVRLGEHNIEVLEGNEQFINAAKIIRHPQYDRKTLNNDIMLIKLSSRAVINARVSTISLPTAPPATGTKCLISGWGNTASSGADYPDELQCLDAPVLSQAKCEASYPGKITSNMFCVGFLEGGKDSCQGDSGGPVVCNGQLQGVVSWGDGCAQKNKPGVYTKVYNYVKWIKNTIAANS

SMILES | Ki (Serine protease 1) | Ki (Prothrombin) | Ki (Coagulation factor X) | clearance [1] | half-life [2] | Vd [3] | Cmax [4]
N=C(N)c1cccc(N2CCCCN(C3CCN(S(=O)(=O)c4ccc(N)cc4)CC3)C2=O)c1 | 0.19 µM | 6.3 µM | 0.071 µM | – | – | – | –
N=C(N)c1cccc(N2CCCCN(C3CCN(S(=O)(=O)Cc4ccccc4)CC3)C2=O)c1.O=C(O)C(F)(F)F | 0.08 µM | 0.5 µM | 0.01 µM | 4.1 L/h/kg | 2.4 min | 0.23 L/kg | 4.8 µM
N=C(N)c1cccc(N2CCCCN(C3CCN(Cc4ccccn4)CC3)C2=O)c1 | 0.12 µM | 2.6 µM | 0.012 µM | – | – | – | –
N=C(N)c1cccc(N2CCCCN(C3CCN(S(=O)(=O)c4ccccc4)CC3)C2=O)c1 | 0.06 µM | 1.6 µM | 0.024 µM | – | – | – | –
N=C(N)c1cccc(N2CCCCN(C3CCN(S(=O)(=O)c4ccccc4N)CC3)C2=O)c1 | 0.13 µM | 2.4 µM | 0.034 µM | – | – | – | –
N=C(N)c1cccc(N2CCCCN(C3CCN(S(=O)(=O)Cc4ccccn4)CC3)C2=O)c1.O=C(O)C(F)(F)F.O=C(O)C(F)(F)F | 0.057 µM | 0.5 µM | 0.01 µM | 7.9 L/h/kg | 1.8 min | 0.34 L/kg | 2.4 µM
N=C(N)c1cccc(N2CCCCN(C3CCN(Cc4cccs4)CC3)C2=O)c1 | 0.17 µM | 1.4 µM | 0.08 µM | – | – | – | –
N=C(N)c1cccc(N2CCCCN(C3CCN(CCc4ccccc4)CC3)C2=O)c1 | 1 µM | 3.6 µM | 0.22 µM | – | – | – | –
N=C(N)c1cccc(N2CCCCN(C3CCN(Cc4cccnc4)CC3)C2=O)c1 | – | 5.3 µM | 0.67 µM | – | – | – | –
N=C(N)c1cccc(N2CCCCN(C3CCN(C(=O)c4ccccc4)CC3)C2=O)c1 | – | > 21 µM | – | – | – | – | –
N=C(N)c1cccc(N2CCCCN(C3CCN(C(=O)Cc4ccccc4)CC3)C2=O)c1 | – | 11.8 µM | 0.9 µM | – | – | – | –
Cl.N=C(N)c1cccc(N2CCCCN(C3CCN(S(=O)(=O)c4cccs4)CC3)C2=O)c1 | 0.052 µM | 1.5 µM | 0.012 µM | 0.68 L/h/kg | 66 min | 1.1 L/kg | 36 µM
N=C(N)c1cccc(N2CCCCN(C3CCN(S(=O)(=O)c4cccc(N)c4)CC3)C2=O)c1 | – | 2.2 µM | 0.2 µM | – | – | – | –
N=C(N)c1cccc(N2CCCCN(C3CCN(Cc4ccncc4)CC3)C2=O)c1 | – | 6.8 µM | 0.2 µM | – | – | – | –

Source: ChEMBL document CHEMBL1133385, “The de novo design and synthesis of cyclic urea inhibitors of factor Xa: optimization of the S4 ligand” (Bioorg Med Chem Lett, 2000)
